# Measured values: PMC9186362, “Design and biological evaluation of substituted 5,7-dihydro-6H-indolo[2,3-c]quinolin-6-one as novel selective Haspin inhibitors” (Journal of Enzyme Inhibition and Medicinal Chemistry, 2022)
# Legend:
# [1] = biological target: MmCLK1 (Mus musculus, UniProt P22518); test: ADP-Glo kinase assay; format: biochemical, Mus musculus (Mm)
# Protocol: (§1) Kinase activities were determined using the ADP-Glo methodology (ADP-Glo Kinase Assay; Promega) according to the assay described by Nguyen et al.[32] except for MmCLK1. The later was assayed in the following buffer: 10 mM MgCl2, 1 mM EGTA, 1 mM DTT, 25 mM Tris-HCl pH 7.5, 50 µg/ml heparin, 0.15 mg/ml BSA, with 0.027 µg/µl of the following peptide: GRSRSRSRSRSR as substrate.
# [2] = biological target: HsGSK3β (Homo sapiens, UniProt P49841); test: ADP-Glo kinase assay; format: biochemical, Homo sapiens (Hs); details: mean n = 2, % of maximum activity of DMSO control, read-out: % Residual activity at 1 μM GSK3β
# Protocol: as §1
# [3] = biological target: T1, HsHaspin (Homo sapiens, UniProt Q8TF76); test: ADP-Glo kinase assay; format: biochemical, Homo sapiens (Hs)
# T1 sequence (Q8TF76 1-798): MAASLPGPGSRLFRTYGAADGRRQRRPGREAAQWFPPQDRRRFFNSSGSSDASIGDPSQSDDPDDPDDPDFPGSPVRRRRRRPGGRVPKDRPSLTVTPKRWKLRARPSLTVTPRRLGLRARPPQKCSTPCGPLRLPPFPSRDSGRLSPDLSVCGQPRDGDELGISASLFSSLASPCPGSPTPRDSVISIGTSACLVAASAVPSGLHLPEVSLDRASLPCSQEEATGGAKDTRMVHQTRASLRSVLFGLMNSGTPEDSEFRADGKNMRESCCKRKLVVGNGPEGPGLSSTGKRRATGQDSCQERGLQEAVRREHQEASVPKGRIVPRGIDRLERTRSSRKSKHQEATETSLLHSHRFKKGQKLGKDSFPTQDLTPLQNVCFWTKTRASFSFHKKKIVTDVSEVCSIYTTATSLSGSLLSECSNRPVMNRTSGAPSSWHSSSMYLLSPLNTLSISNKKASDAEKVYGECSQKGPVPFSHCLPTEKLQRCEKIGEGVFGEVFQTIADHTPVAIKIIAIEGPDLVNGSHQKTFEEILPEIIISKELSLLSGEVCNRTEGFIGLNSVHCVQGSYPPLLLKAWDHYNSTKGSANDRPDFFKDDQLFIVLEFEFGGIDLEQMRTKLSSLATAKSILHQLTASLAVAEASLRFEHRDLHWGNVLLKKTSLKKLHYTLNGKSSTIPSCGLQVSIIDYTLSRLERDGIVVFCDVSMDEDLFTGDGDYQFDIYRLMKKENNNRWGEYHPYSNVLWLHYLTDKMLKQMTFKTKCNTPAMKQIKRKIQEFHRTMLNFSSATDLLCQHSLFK
# Protocol: as §1
# [4] = biological target: HsCdk5/p25 (Homo sapiens, UniProt Q00535); test: ADP-Glo kinase assay; format: biochemical, Homo sapiens (Hs); details: mean n = 2, % of maximum activity of DMSO control, read-out: % Residual activity at 1 μM CDK5
# Protocol: as §1
# [5] = biological target: HsCdk2/Cyc A (Homo sapiens, UniProt P24941); test: ADP-Glo kinase assay; format: biochemical, Homo sapiens (Hs); details: mean n = 2, % of maximum activity of DMSO control, read-out: % Residual activity at 1 μM CDK2
# Protocol: as §1
# [6] = biological target: HsCdk9/Cyc E (Homo sapiens, UniProt P50750); test: ADP-Glo kinase assay; format: biochemical, Homo sapiens (Hs); details: mean n = 2, % of maximum activity of DMSO control, read-out: % Residual activity at 1 μM CDK9
# Protocol: as §1
# [7] = biological target: HsPIM1 (Homo sapiens, UniProt P11309); test: ADP-Glo kinase assay; format: biochemical, Homo sapiens (Hs); details: mean n = 2, % of maximum activity of DMSO control, read-out: % Residual activity at 1 μM PIM1
# Protocol: as §1
# [8] = tested on: U-2 OS, HCT116, MDA-MB231, SH-SY5Y and RPE-1 cell lines; test: Cell viability primary screen at 25 μM; format: cell-based, human; details: 48 h
# Protocol: HCT116 cells were cultured in McCoy’s medium. SH-SY5Y, MDA-MB231 and U-2 OS cells were cultured in Dulbecco's modified Eagle's medium (DMEM) and hTERT RPE-1 cells in DMEM:F12 medium. All media were supplemented with 10% foetal calf serum and cells were cultured at 37 °C in a 5% CO2 humidified atmosphere.
# Cell viability was then assessed using the CellTiter96 AQueous cell proliferation assay from Promega according to the manufacturer’s instructions. Each experiment was done in triplicate and EC50 were determined from the dose-response curves according to the signal given by the control (0.1% DMSO) set at 100% viability using Prism GraphPad software.
# [9] = biological target: T2, PIK3C2G (PI3K-C2 gamma) (Homo sapiens, UniProt O75747); test: SelectScreen Adapta; format: biochemical; details: ATP Km, read-out: Percentage of inhibition
# T2 construct: purchased Life Technologies (SelectScreen Whole Panel service)
# Protocol: (§2) We further evaluated the selectivity profile of compound 55 on a larger panel of kinases (SelectScreen Whole Panel, Life Technologies). The inhibition profile of 55, evaluated at 1 μM, is depicted on a dendrogram on Figure 3 where kinases inhibited by a minimum of 80% are shown. A full list of the kinases tested is shown on Table S1 in supplementary information.
# [10] = biological target: T3, PIP5K1B (Homo sapiens, UniProt O14986); test: SelectScreen Adapta; format: biochemical; details: ATP 10 µM, read-out: Percentage of inhibition
# T3 construct: purchased Life Technologies
# Protocol: as §2
# [11] = biological target: T4, CHUK (IKK alpha) (Homo sapiens, UniProt O15111); test: SelectScreen Adapta; format: biochemical; details: ATP Km, read-out: Percentage of inhibition
# T4 construct: purchased Life Technologies
# Protocol: as §2
# [12] = biological target: T5, LRRK2 (Homo sapiens, UniProt Q5S007); test: SelectScreen Adapta; format: biochemical; details: ATP Km, read-out: Percentage of inhibition
# T5 construct: purchased Life Technologies (SelectScreen service)
# Protocol: as §2
# [13] = biological target: T6, CDK7/cyclin H/MNAT1 (Homo sapiens, UniProt P50613); test: SelectScreen Adapta; format: biochemical; details: ATP Km, read-out: Percentage of inhibition
# T6 construct: purchased Life Technologies
# Protocol: as §2
# [14] = biological target: T7, IRAK1 (Homo sapiens, UniProt P51617); test: SelectScreen Adapta; format: biochemical; details: ATP Km, read-out: Percentage of inhibition
# T7 construct: purchased Life Technologies (SelectScreen service)
# Protocol: as §2
# [15] = biological target: T8, PIK3C3 (hVPS34) (Homo sapiens, UniProt Q8NEB9); test: SelectScreen Adapta; format: biochemical; details: ATP Km, read-out: Percentage of inhibition
# T8 construct: purchased Life Technologies (SelectScreen)
# Protocol: as §2
# [16] = biological target: DAPK1 (Homo sapiens, UniProt P53355); test: SelectScreen Adapta; format: biochemical; details: ATP Km, read-out: Percentage of inhibition
# Protocol: as §2
# Chain of MmCLK1 (P22518 whole entry): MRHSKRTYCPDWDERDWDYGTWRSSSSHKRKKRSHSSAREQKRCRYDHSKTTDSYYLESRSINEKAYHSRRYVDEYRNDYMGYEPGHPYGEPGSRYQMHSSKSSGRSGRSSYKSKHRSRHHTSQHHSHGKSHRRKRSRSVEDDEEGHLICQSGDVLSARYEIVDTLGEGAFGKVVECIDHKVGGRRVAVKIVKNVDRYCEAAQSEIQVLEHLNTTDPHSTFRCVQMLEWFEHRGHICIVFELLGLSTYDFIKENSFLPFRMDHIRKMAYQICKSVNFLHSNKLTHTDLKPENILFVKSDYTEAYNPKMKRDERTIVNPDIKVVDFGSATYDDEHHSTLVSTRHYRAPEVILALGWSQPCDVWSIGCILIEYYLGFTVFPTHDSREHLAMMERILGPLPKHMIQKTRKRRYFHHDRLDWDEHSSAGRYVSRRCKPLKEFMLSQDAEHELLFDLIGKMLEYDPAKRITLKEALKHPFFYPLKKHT
# Chain of HsCdk9/Cyc E (P50750 whole entry): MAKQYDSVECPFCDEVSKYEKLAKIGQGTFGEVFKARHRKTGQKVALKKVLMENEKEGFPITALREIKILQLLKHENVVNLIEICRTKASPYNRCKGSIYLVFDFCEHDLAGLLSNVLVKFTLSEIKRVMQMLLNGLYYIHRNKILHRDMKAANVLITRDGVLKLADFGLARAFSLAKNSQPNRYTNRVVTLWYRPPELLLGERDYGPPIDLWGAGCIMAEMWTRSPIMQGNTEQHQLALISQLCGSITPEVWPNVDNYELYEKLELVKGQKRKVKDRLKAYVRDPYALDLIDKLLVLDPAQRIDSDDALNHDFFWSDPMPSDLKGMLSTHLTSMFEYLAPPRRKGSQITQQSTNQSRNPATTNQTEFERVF
# Chain of HsCdk9/Cyc E (O60563 whole entry partner): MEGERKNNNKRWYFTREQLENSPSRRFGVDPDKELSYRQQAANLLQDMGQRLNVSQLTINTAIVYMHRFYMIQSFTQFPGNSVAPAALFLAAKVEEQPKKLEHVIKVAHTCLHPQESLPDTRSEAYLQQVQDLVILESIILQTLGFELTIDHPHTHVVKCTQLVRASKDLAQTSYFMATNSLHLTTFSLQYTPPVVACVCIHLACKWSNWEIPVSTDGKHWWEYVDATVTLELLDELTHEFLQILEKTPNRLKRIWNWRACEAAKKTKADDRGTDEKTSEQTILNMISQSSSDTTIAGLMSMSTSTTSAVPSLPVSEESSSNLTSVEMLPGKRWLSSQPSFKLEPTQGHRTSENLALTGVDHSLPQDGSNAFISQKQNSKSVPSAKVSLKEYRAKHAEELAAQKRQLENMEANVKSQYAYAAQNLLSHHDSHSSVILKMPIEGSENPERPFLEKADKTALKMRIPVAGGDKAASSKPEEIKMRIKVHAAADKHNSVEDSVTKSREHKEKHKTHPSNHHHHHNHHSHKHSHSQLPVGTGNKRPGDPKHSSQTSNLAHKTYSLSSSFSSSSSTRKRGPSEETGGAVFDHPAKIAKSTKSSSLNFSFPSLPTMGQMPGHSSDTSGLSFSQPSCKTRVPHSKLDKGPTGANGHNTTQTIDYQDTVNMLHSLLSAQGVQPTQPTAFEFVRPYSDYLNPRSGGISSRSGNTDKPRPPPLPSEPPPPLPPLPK
# T6 sequence (P50613 whole entry): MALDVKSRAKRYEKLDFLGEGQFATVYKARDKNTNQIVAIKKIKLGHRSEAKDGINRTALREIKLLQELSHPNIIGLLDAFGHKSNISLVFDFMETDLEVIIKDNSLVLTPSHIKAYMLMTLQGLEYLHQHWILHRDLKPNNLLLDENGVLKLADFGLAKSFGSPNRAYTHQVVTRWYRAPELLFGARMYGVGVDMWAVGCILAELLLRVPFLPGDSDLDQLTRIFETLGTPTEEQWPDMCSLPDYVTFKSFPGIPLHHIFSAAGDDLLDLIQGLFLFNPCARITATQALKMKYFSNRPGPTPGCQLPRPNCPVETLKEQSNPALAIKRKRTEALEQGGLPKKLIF
# T6 sequence (P51946 whole entry partner): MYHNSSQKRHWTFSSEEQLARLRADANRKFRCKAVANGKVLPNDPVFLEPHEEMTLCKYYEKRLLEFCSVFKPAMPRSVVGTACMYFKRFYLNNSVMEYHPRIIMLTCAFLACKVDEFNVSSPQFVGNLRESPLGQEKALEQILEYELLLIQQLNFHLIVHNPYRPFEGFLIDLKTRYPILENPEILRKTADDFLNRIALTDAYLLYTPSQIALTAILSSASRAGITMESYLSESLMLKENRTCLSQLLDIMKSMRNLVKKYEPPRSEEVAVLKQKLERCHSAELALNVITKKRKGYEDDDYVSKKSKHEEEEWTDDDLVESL
# T6 sequence (P51948 whole entry partner): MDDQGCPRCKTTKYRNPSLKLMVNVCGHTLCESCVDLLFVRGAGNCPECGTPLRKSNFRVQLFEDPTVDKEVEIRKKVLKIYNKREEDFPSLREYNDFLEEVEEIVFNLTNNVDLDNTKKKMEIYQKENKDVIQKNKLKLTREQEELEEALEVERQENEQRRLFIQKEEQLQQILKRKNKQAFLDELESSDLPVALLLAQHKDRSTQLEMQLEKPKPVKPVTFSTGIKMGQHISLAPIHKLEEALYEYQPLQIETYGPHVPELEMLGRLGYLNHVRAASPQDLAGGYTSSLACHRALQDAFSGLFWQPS
# T7 sequence (P51617 whole entry): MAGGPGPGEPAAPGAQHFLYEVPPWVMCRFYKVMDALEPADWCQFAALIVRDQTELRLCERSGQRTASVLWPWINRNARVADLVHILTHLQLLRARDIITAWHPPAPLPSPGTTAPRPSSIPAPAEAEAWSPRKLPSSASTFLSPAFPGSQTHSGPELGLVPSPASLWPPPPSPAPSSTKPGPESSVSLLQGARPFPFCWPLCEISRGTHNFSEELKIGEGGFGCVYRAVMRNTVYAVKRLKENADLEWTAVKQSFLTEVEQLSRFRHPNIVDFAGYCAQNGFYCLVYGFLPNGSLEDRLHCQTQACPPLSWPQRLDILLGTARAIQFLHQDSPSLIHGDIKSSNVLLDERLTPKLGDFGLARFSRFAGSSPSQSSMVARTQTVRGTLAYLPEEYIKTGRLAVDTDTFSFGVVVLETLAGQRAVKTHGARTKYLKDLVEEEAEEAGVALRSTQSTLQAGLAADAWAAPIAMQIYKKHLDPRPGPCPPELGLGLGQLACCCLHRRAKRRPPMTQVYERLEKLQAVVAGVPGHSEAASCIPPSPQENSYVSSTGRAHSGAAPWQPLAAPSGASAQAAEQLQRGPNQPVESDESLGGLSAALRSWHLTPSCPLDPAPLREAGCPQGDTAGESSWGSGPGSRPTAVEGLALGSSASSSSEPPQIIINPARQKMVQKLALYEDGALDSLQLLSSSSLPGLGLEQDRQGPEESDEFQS
# T3 sequence (O14986 whole entry): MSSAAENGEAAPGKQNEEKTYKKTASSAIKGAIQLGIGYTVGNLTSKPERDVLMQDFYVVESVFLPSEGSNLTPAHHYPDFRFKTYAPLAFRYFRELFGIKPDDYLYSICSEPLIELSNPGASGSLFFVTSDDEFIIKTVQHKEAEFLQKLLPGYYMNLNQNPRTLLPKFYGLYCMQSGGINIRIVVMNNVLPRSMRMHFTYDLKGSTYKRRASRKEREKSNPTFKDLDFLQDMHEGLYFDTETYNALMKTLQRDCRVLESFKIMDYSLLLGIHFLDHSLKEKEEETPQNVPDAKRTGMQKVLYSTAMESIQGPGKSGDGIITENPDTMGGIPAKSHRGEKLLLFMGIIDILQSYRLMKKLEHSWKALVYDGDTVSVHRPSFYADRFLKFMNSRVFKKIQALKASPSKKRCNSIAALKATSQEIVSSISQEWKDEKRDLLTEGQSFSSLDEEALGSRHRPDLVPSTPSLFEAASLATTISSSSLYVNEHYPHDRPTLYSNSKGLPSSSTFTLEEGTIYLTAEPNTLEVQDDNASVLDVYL
# Chain of HsPIM1 (P11309 whole entry): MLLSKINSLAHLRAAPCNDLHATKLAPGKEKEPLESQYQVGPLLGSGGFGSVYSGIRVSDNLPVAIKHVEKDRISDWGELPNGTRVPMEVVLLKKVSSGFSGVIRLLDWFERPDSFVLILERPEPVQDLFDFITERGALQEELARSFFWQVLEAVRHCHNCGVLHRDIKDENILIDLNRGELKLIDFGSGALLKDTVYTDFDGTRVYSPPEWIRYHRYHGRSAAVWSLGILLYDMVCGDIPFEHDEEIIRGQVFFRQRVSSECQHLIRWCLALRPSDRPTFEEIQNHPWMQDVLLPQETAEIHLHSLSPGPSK
# T4 sequence (O15111 whole entry): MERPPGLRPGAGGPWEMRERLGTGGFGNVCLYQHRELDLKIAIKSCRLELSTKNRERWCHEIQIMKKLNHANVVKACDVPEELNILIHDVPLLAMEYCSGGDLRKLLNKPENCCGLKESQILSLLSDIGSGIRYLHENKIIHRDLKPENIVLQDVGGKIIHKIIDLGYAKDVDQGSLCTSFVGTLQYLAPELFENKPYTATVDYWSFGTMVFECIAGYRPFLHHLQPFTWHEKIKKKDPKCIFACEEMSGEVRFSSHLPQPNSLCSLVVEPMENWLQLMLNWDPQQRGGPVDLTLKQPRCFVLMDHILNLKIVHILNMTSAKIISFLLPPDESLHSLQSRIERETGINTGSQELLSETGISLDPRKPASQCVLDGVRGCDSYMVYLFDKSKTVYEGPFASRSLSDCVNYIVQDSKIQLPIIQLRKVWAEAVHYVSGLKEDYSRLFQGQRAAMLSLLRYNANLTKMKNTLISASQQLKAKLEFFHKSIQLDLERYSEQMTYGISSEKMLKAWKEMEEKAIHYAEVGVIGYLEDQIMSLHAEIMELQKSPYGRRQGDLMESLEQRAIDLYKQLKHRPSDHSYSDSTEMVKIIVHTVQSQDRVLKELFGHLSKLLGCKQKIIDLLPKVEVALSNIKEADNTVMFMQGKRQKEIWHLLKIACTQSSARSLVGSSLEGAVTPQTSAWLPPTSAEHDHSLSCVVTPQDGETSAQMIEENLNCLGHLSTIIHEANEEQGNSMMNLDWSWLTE
compound,measurement,setting,value
"COc1ccc2[nH]c3c(=O)[nH]c4ccc(O)cc4c3c2c1 [Compound 55, 2-Hydroxy-10-methoxy-5,7-dihydro-6H-indolo[2,3-c]quinolin-6-one]",remaining activity at 1 µM,"[1]; 1 μM, mean n = 2, % of maximum activity of DMSO control, read-out: % Residual activity at 1 μM CLK1",14%
same,Selectivity index CLK1/Haspin,[1]; IC50 CLK1/IC50 Haspin,17
same,IC50,"[1]; dose-response curve, each point in duplicate, read-out: Kinase inhibition (IC50) CLK1",33 nM
same,remaining activity at 1 µM,[2],20%
same,remaining activity at 1 µM,"[3]; 1 μM, mean n = 2, % of maximum activity of DMSO control, read-out: % Residual activity at 1 μM Haspin",0%
same,IC50,"[3]; dose-response curve, each point in duplicate, read-out: Kinase inhibition (IC50) Haspin",2 nM
same,remaining activity at 1 µM,[4],53%
same,remaining activity at 1 µM,[5],38%
same,remaining activity at 1 µM,[6],17%
same,remaining activity at 1 µM,[7],22%
same,Reduction of cell viability compared to the DMSO control,[8],≥ 75%
same,inhibition at 1 µM,[9],47%
same,inhibition at 1 µM,[10],33%
same,inhibition at 1 µM,[11],38%
same,inhibition at 1 µM,[12],90%
same,inhibition at 1 µM,[13],27%
same,inhibition at 1 µM,[14],91%
same,inhibition at 1 µM,[15],9%
same,inhibition at 1 µM,[16],57%
